Experimental data: article PMC4491433 (Molecular and cellular endocrinology, 2010)

How the values were obtained:
hLH receptor = hLH receptor (Homo sapiens, UniProt P22888); test: inhibition of LH EC80 response at hLH receptor; assay type: cell-based
[1] = target: T1, human FSH receptor (hFSHR) (Homo sapiens, UniProt P23945); test: HTRF cAMP inhibition; assay type: cell-based
T1 sequence (P23945 18-695): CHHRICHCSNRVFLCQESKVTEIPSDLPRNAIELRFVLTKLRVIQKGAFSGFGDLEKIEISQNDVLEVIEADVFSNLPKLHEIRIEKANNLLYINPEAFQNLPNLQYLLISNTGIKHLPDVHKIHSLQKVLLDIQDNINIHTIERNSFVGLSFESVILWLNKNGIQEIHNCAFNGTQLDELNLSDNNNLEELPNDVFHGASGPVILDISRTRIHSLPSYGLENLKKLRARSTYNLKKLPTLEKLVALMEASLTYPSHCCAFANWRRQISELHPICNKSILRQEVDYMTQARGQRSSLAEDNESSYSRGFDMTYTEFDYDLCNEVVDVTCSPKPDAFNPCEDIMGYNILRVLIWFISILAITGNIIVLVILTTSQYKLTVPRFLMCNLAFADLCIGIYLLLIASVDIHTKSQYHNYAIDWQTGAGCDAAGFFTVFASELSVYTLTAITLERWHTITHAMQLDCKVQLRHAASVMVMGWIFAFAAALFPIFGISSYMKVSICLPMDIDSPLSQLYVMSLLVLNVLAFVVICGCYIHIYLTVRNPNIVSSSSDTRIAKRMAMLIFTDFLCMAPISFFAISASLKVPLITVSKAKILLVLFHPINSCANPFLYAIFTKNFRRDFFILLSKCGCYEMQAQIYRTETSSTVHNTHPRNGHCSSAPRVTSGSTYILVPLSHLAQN

hLH receptor, sequence (P22888 27-699): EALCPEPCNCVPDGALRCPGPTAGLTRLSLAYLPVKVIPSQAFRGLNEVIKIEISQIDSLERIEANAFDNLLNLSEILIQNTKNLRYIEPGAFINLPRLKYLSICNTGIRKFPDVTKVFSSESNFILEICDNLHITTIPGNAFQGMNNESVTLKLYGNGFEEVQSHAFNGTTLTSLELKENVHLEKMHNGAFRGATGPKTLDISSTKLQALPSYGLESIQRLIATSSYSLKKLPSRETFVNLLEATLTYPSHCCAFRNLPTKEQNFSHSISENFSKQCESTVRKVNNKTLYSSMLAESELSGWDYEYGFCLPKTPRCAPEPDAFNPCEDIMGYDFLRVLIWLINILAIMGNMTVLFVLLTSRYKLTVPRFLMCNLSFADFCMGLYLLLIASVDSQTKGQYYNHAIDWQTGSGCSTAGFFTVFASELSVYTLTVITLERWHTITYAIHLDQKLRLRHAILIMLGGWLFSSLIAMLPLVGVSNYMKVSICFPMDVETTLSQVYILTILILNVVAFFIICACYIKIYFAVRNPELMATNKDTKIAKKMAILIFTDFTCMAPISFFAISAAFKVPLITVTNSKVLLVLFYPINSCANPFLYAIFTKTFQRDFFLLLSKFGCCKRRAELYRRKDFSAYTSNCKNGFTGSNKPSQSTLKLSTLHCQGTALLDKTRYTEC

## COc1ccc(C(=O)Nc2ccc(C(C)(C)C#N)cc2)cc1OC [ADX61623]
hLH receptor
  IC50: 3400 ± 800 nM
[1]
  IC50: 700 ± 200 nM
